System: subjects with moderate-to-severe plaque psoriasis
Assay: Safety, adverse events, Example 2 through Week 56
Assay type: in vivo, human
Description: The LTE safety analysis was based on randomized participants in Example who entered the present long-term extension study and received at least one dose of study intervention (including a partial dose) during the study period.

[1] = 25 mg QD, LTE Safety analysis set
[2] = 50 mg QD, Week 16 through Week 56
[3] = 50 mg QD, LTE Safety analysis set

CC(=O)NCCCC[C@@H]1NC(=O)[C@H](Cc2c[nH]c3c(C)cccc23)NC(=O)[C@H]([C@@H](C)O)NC(=O)[C@H](CC(N)=O)NC(=O)[C@@H](NC(C)=O)C(C)(C)SSC(C)(C)[C@@H](C(=O)N[C@@H](Cc2ccc(OCCN)cc2)C(=O)N[C@@H](Cc2ccc3ccccc3c2)C(=O)NC2(C(=O)N[C@@H](CCC(=O)O)C(=O)N[C@@H](CC(N)=O)C(=O)N[C@@H](Cc3cccnc3)C(=O)N(C)CC(N)=O)CCOCC2)NC1=O [IL-23 receptor antagonist peptide, Ac-[Pen]*-N-T-[W(7-Me)]-[Lys(Ac)]-[Pen]*-Phe[4-(2-aminoethoxy)]-[2-Nal]-[THP]-E-N-[3-Pal]-Sarc-NH2 (*[Pen]-[Pen]* formdisulfidebond)]
Subjects with treatment-emergent serious AE: Neoplasms benign, malignant and unspecified (incl cysts and polyps) (25 mg QD, through Week 56): 0
Subjects with treatment-emergent serious AE: Nervous system disorders (25 mg QD, through Week 56): 0
Subjects with treatment-emergent serious AE: Non-cardiac chest pain (25 mg QD, through Week 56): 0
Subjects with treatment-emergent serious AE: Psychiatric disorders (25 mg QD, through Week 56): 0
Subjects with treatment-emergent serious AE: Respiratory, thoracic and mediastinal disorders (25 mg QD, through Week 56): 0
Subjects with treatment-emergent serious AE: Suicide attempt (25 mg QD, through Week 56): 0
Subjects with treatment-emergent serious AE: Tonsillar hypertrophy (25 mg QD, through Week 56): 0
Subjects with treatment-emergent serious AE: Uterine leiomyoma (25 mg QD, through Week 56): 0
Subjects with treatment-emergent serious AE: Ventricular dysfunction (25 mg QD, through Week 56): 0
Suicide attempt: number of subjects (25 mg QD, through Week 56): 0
Sunburn: number of subjects (25 mg QD, through Week 56): 0
Thrombocytopenia: % of subjects (25 mg QD, through Week 56): (2.3%)
Thrombocytopenia: number of subjects (25 mg QD, through Week 56): 1
Thrombocytosis: number of subjects (25 mg QD, through Week 56): 0
Tonsillar hypertrophy: number of subjects (25 mg QD, through Week 56): 0
Tooth fracture: number of subjects (25 mg QD, through Week 56): 0
Type 2 diabetes mellitus: number of subjects (25 mg QD, through Week 56): 0
Urinary tract disorder: number of subjects (25 mg QD, through Week 56): 0
Uterine leiomyoma: number of subjects (25 mg QD, through Week 56): 0
Vascular disorders: number of subjects (25 mg QD, through Week 56): 0
Ventricular dysfunction: number of subjects (25 mg QD, through Week 56): 0
Vertigo: % of subjects (25 mg QD, through Week 56): (2.3%)
Vertigo: number of subjects (25 mg QD, through Week 56): 1
Vitamin D deficiency: number of subjects (25 mg QD, through Week 56): 0
Subjects with 1 or more Serious Infections and infestations [1]: 0
Subjects with 1 or more Serious adverse events [1]: 0
Subjects with adverse event: Arthralgia [1]: 0
Subjects with adverse event: Hypertension [1]: 0
Subjects with adverse event: Influenza [1]: 0
Subjects with adverse event: Sinusitis [1]: 0
Subjects with adverse event: Vomiting [1]: 0
Subjects with serious adverse event: Cerebrovascular accident [1]: 0
Subjects with serious adverse event: Coronary artery disease [1]: 0
Subjects with serious adverse event: Diverticulitis [1]: 0
Subjects with serious adverse event: Foot deformity [1]: 0
Subjects with serious adverse event: Intervertebral disc protrusion [1]: 0
Subjects with serious adverse event: Ligament injury [1]: 0
Subjects with serious adverse event: Non-cardiac chest pain [1]: 0
Subjects with serious adverse event: Tonsillar hypertrophy [1]: 0
Subjects with serious adverse event: Uterine leiomyoma [1]: 0
Subjects with serious adverse event: Ventricular dysfunction [1]: 0
Subjects with 1 or more treatment-emergent serious adverse events (25 mg QD, Week 16-56): 0
Subjects with AE leading to discontinuation: Asthenia (25 mg QD, Week 16-56): 0
Subjects with AE leading to discontinuation: Chills (25 mg QD, Week 16-56): 0
Subjects with AE leading to discontinuation: Ear and labyrinth disorders (25 mg QD, Week 16-56): 0
Subjects with AE leading to discontinuation: Gastrointestinal disorders (25 mg QD, Week 16-56): 0
Subjects with AE leading to discontinuation: General disorders and administration site conditions (25 mg QD, Week 16-56): 0
Subjects with AE leading to discontinuation: Headache (25 mg QD, Week 16-56): 0
Subjects with AE leading to discontinuation: Insomnia (25 mg QD, Week 16-56): 0
Subjects with AE leading to discontinuation: Nervous system disorders (25 mg QD, Week 16-56): 0
Subjects with AE leading to discontinuation: Proctalgia (25 mg QD, Week 16-56): 0
Subjects with AE leading to discontinuation: Psoriasis (25 mg QD, Week 16-56): 0
Subjects with AE leading to discontinuation: Psychiatric disorders (25 mg QD, Week 16-56): 0
Subjects with AE leading to discontinuation: Skin and subcutaneous tissue disorders (25 mg QD, Week 16-56): 0
Subjects with AE leading to discontinuation: Vertigo (25 mg QD, Week 16-56): 0
Subjects with AE leading to discontinuation: Vomiting (25 mg QD, Week 16-56): 0
Subjects with COVID-19 associated AE of interest: SARS-CoV-2 test positive (25 mg QD, Week 16-56): 0
Subjects with treatment-emergent AE: Arthralgia (25 mg QD, Week 16-56): 0
Subjects with treatment-emergent AE: Hypertension (25 mg QD, Week 16-56): 0
Subjects with treatment-emergent AE: Influenza (25 mg QD, Week 16-56): 0
Subjects with treatment-emergent AE: Musculoskeletal and connective tissue disorders (25 mg QD, Week 16-56): 0
Subjects with treatment-emergent AE: Sinusitis (25 mg QD, Week 16-56): 0
Subjects with treatment-emergent AE: Vascular disorders (25 mg QD, Week 16-56): 0
Subjects with treatment-emergent AE: Vomiting (25 mg QD, Week 16-56): 0
Subjects with treatment-emergent serious AE: Cardiac disorders (25 mg QD, Week 16-56): 0
Subjects with treatment-emergent serious AE: Cerebrovascular accident (25 mg QD, Week 16-56): 0
Subjects with treatment-emergent serious AE: Coronary artery disease (25 mg QD, Week 16-56): 0
Subjects with treatment-emergent serious AE: Diverticulitis (25 mg QD, Week 16-56): 0
Subjects with treatment-emergent serious AE: Foot deformity (25 mg QD, Week 16-56): 0
Subjects with treatment-emergent serious AE: General disorders and administration site conditions (25 mg QD, Week 16-56): 0
Subjects with treatment-emergent serious AE: Infections and infestations (25 mg QD, Week 16-56): 0
Subjects with treatment-emergent serious AE: Injury, poisoning and procedural complications (25 mg QD, Week 16-56): 0
Subjects with treatment-emergent serious AE: Intervertebral disc protrusion (25 mg QD, Week 16-56): 0
Subjects with treatment-emergent serious AE: Ligament injury (25 mg QD, Week 16-56): 0
Subjects with treatment-emergent serious AE: Musculoskeletal and connective tissue disorders (25 mg QD, Week 16-56): 0
Subjects with treatment-emergent serious AE: Neoplasms benign, malignant and unspecified (incl cysts and polyps) (25 mg QD, Week 16-56): 0
Subjects with treatment-emergent serious AE: Nervous system disorders (25 mg QD, Week 16-56): 0
Subjects with treatment-emergent serious AE: Non-cardiac chest pain (25 mg QD, Week 16-56): 0
Subjects with treatment-emergent serious AE: Respiratory, thoracic and mediastinal disorders (25 mg QD, Week 16-56): 0
Subjects with treatment-emergent serious AE: Tonsillar hypertrophy (25 mg QD, Week 16-56): 0
Subjects with treatment-emergent serious AE: Uterine leiomyoma (25 mg QD, Week 16-56): 0
Subjects with treatment-emergent serious AE: Ventricular dysfunction (25 mg QD, Week 16-56): 0
Number of subjects with treatment-emergent AE: Cholelithiasis [2]: 0
Number of subjects with treatment-emergent AE: Ear and labyrinth disorders [2]: 0
Number of subjects with treatment-emergent AE: Endocrine disorders [2]: 0
Number of subjects with treatment-emergent AE: Eye disorders [2]: 0
Number of subjects with treatment-emergent AE: Eyelid skin dryness [2]: 0
Number of subjects with treatment-emergent AE: Goiter [2]: 0
Number of subjects with treatment-emergent AE: Hepatobiliary disorders [2]: 0
Number of subjects with treatment-emergent AE: Hypertransaminasemia [2]: 0
Number of subjects with treatment-emergent AE: Immune system disorders [2]: 1
Number of subjects with treatment-emergent AE: Insomnia [2]: 0
Number of subjects with treatment-emergent AE: Ocular cyst [2]: 0
Number of subjects with treatment-emergent AE: Psychiatric disorders [2]: 0
Number of subjects with treatment-emergent AE: Retinal vein occlusion [2]: 0
Number of subjects with treatment-emergent AE: Seasonal allergy [2]: 1
Number of subjects with treatment-emergent AE: Vertigo [2]: 0
Subjects with treatment-emergent AE: Immune system disorders (%) [2]: (2.6%)
Subjects with treatment-emergent AE: Seasonal allergy (%) [2]: (2.6%)
Subjects who discontinued study agent because of 1 or more adverse events [3]: 0
Subjects with 1 or more Serious Infections and infestations [3]: 0
Subjects with adverse event: Headache [3]: 0
Subjects with adverse event: Meniscus injury [3]: 0
Subjects with adverse event: Vomiting [3]: 0
Subjects with serious adverse event: Cerebrovascular accident [3]: 0
Subjects with serious adverse event: Diverticulitis [3]: 0
Subjects with serious adverse event: Intervertebral disc protrusion [3]: 0
Subjects with serious adverse event: Ligament injury [3]: 0
Subjects with serious adverse event: Tonsillar hypertrophy [3]: 0
Subjects with serious adverse event: Uterine leiomyoma [3]: 0
Subjects with serious adverse event: Ventricular dysfunction [3]: 0
Subjects with 1 or more treatment-emergent adverse events leading to discontinuation of study agent (50 mg QD, Week 16-56): 0
Subjects with AE leading to discontinuation: Alanine aminotransferase increased (50 mg QD, Week 16-56): 0
Subjects with AE leading to discontinuation: Aspartate aminotransferase increased (50 mg QD, Week 16-56): 0
Subjects with AE leading to discontinuation: Asthenia (50 mg QD, Week 16-56): 0
Subjects with AE leading to discontinuation: Chills (50 mg QD, Week 16-56): 0
Subjects with AE leading to discontinuation: Ear and labyrinth disorders (50 mg QD, Week 16-56): 0
Subjects with AE leading to discontinuation: Gamma-glutamyltransferase increased (50 mg QD, Week 16-56): 0
Subjects with AE leading to discontinuation: Gastrointestinal disorders (50 mg QD, Week 16-56): 0
Subjects with AE leading to discontinuation: General disorders and administration site conditions (50 mg QD, Week 16-56): 0
Subjects with AE leading to discontinuation: Headache (50 mg QD, Week 16-56): 0
